This note sets out measurements from ChEMBL document CHEMBL2157973, “An efficient synthesis of 3-OBn-6β,14-epoxy-bridged opiates from naltrexone and identification of a related dual MOR inverse agonist/KOR agonist” (Bioorg Med Chem Lett, 2012).

pEC50: −log10 of the molar value.

Holding throughout (format): functional, cell-based
The target in experiment [1] is T1, Mu-type opioid receptor (Homo sapiens, UniProt P35372). The experiment can be described thus: Inverse agonist activity at human recombinant mu opioid receptor expressed in CHO cells after 3 hrs by [35S]GTPgammaS binding assay relative to KC-2-009.
Experiment [2] has as its target Kappa-type opioid receptor (Homo sapiens) (UniProt P41145). The experiment can be described thus: Agonist activity at human kappa opioid receptor expressed in CHO cells after 3 hrs by [35S]GTPgammaS binding assay relative to control.
Experiment [3] has the same target. The experiment can be described thus: Agonist activity at human kappa opioid receptor expressed in CHO cells after 3 hrs by [35S]GTPgammaS binding assay. In general terms: Binding of GTPγS marks nucleotide exchange on a G protein.
In experiment [4] the target is T1, Mu-type opioid receptor. The experiment can be described thus: Inverse agonist activity at human recombinant mu opioid receptor expressed in CHO cells after 3 hrs by [35S]GTPgammaS binding assay.

T1 sequence (P35372 whole entry): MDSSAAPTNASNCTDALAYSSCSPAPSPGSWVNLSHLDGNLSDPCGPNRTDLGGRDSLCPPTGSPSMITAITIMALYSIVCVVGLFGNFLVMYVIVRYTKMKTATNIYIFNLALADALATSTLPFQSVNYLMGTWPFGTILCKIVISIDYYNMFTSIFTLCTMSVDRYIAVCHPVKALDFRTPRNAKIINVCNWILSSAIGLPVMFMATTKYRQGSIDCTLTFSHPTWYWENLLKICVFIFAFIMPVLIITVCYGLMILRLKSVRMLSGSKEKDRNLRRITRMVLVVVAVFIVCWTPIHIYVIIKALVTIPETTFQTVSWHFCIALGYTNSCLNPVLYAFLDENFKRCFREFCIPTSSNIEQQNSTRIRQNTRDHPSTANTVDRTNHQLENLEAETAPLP
Chain of Kappa-type opioid receptor (Homo sapiens) (P41145 whole entry): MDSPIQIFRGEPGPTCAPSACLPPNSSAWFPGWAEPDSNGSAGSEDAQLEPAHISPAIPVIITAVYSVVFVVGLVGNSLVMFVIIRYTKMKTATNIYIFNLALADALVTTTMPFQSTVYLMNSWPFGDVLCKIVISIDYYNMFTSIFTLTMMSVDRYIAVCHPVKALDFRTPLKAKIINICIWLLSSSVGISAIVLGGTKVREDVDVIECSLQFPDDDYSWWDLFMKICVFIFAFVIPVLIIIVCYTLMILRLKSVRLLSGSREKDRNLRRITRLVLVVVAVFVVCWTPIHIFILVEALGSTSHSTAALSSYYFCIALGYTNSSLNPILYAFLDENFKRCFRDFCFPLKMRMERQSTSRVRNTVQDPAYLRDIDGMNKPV

With `Oc1ccc2c3c1O[C@H]1[C@H](O)CC[C@@]4(O)[C@@H](C2)N(CC2CC2)CC[C@]314`, the Emax (usually the greatest response seen or fitted, relative to the assay's reference) on Mu-type opioid receptor [1] amounted to 89%.

Turning to `CS(=O)(=O)O[C@@H]1CC[C@@]2(O)[C@H]3Cc4ccc(O)c5c4[C@@]2(CCN3CC2CC2)[C@H]1O5`, the figures for the Emax (in experiment [2]; at Mu-type opioid receptor [1]) were 48% and 60.5%, respectively. The ED50 in experiment [3] amounted to 26 nM. Further, on Mu-type opioid receptor [4], the pEC50 (commonly the negative decadic logarithm of the EC50, by convention in mol/L) was 8.59.
